Test results published in a compilation of properties of binary mixtures (doi:10.1021/je060126x).

Assay: xn = mol fraction of the nth substance listed
Settings: 298.15 K, 101 kPa

CCOS(=O)(=O)[O-].CC[n+]1ccn(C)c1 + CCO
Settings	speed of sound [m/s]	viscosity [mPa·s]
x2 = 0.1271	1657	65.5
x2 = 0.1281	1655	66.1
x2 = 0.2039	1636	49.8
x2 = 0.3088	1603	34.69
x2 = 0.3256	1598	32.21
x2 = 0.3598	1586	28.75
x2 = 0.4147	1566	22.88
x2 = 0.4336	1558	21.39
x2 = 0.4604	1545	18.98
x2 = 0.5103	1525	15.4
x2 = 0.5223	1516	14.78
x2 = 0.5724	1490	11.74
x2 = 0.5926	1480	10.83
x2 = 0.5951	1467	10.65
x2 = 0.712	1407	6.13
x2 = 0.7174	1406	5.98
x2 = 0.7676	1369	4.68
x2 = 0.806	1339	3.86
x2 = 0.8666	1286	2.709
x2 = 0.9026	1253	2.189
x2 = 0.9062	1248	2.138
x2 = 0.9504	1202	1.628
x2 = 0.9522	1200	1.589
